Results from US20100216827A1 (Metabolex, Inc., priority 2008, published 2010).
Read-outs that look alike come from different tables or passages of the source.

Molecular target: T1, human GPR120 (Homo sapiens, UniProt Q5NUL3)
T1 construct: host or cells: HEK293 cells coexpressing Gqi5
T1 sequence (Q5NUL3 1-361): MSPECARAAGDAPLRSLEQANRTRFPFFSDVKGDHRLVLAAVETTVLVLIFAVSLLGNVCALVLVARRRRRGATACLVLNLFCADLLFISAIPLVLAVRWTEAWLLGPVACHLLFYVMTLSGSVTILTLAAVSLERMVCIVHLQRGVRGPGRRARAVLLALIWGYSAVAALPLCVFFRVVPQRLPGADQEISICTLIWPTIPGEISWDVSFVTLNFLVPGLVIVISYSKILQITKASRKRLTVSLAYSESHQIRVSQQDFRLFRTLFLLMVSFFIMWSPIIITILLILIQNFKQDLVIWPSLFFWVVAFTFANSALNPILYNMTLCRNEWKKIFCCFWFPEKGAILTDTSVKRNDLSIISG
Test: Intracellular Ca2+ (FLIPR Calcium 4, Flexstation) assay in human GPR120 stable HEK293 cell line coexpressing Gqi5
Type: cell-based
Settings: for % Activity at 5 μM: 5 μM compound compared to the maximal activity of GW9508 at 6.7 μM (100%); for EC50: human GPR120 stably expressing cells, 8 concentrations 0.00001 to 20 μM
Method: Human GPR120 stable cell line was purchased from Multispan Inc (26219 Eden Landing Road, Hayward, Calif. 94545). This GPR120 cell line was generated in HEK293 cells coexpressing Gqi5. In this cell line, the Flag epitope tag (DYKDDDDK) was fused to the amino terminus of human GPR120 protein.
The concentration of intracellular Ca^2+ was measured as described below. Human GPR120 cells were plated in 96 well plates (Poly-D-Lysine coated black/clear Plate, Greiner Bio-One) at 70,000 cells per well and cultured overnight in conditions of 37° C. and 5% CO2. A Ca^2+ assay dye stock solution was prepared by adding 10 mL of assay buffer (HBSS/20 mM HEPES, pH 7.4) to FLIPR Calcium 4 Assay Bulk Kit (Molecular Devices). The 10 mL of Ca^2+ assay dye solution was prepared by further diluting 0.5 mL of Ca^2+ assay dye stock solution with 10 mL of assay buffer. The medium of the cells was removed and immediately 100 μl of the Ca^2+ assay dye solution was dispensed into each well followed by incubation at 37° C. and 5% CO2 for 50 minutes to incorporate the Ca^2+ dye into the cells. The cell plate was then placed in the Flexstation (Molecular Devices) for 20 minutes at 37° C. Compounds were dissolved in 100% DMSO and diluted to desired concentrations with assay buffer and placed in Flexstation simultaneously with the cell plate for 20 minute incubation at 37° C. prior to reading. Fluorescence intensity was measured immediately following compound addition (25 μl/well) on the Flexstation at an excitation wavelength of 485 nm and an emission wavelength of 525 with 515 nm auto cutoff. The resulting increase in fluorescence intensities corresponds to increases in intracellular Ca^2+ levels.
Compounds were dissolved in 100% DMSO to a concentration of 20 mM to provide stock solutions. To determine activity against human GPR120, compounds were added with human GPR120 stably expressing cells (described above), at 8 desired concentrations ranging from 0.00001 to 20 μM, in 96 well plates and fluorescence intensities were measured for 90 seconds with 2-second intervals. An EC50 value (concentration of the GPR120 agonist where 50% of the agonist's maximal activity is observed) was calculated using the changes (Max-Min) of fluorescent intensity.
To determine percent activity for a tested compound, the fluorescence intensity value obtained at a particular concentration were compared to the maximal fluorescence intensity value obtained for reference compound GW9508 (4-[[(3-phenoxyphenyl)methyl]amino]benzene propanoic acid; British Journal of Pharmacology 2006 148, 619-628) that acts as a full agonist of the GPR120 receptor. The maximal activity of GW9508 is designated as 100% activity. Typically, the GW9508 activity reached a maximum at a concentration of approximately 6.7 μM. Activities of compounds that were tested according to this method are shown in Table 1 below and are expressed as % activity at 5 μM compound compared to the maximal activity of GW9508 at 6.7 μM.

[1] = read-out: EC50 between >1 μM and ≦10 μM

| Compound | % Activity at 5 μM [%] | EC50 [1] [nM] | EC50 (read-out: EC50 ≦ 1 μM) [nM] | EC50 (read-out: EC50 > 10 μM) [nM] |
| --- | --- | --- | --- | --- |
| Cc1noc(C)c1COc1c(F)cc(CCC(=O)O)cc1F [Example 23, 3-(4-((3,5-dimethylisoxazol-4-yl)methoxy)-3,5-difluorophenyl)propanoic acid] | 63 | 1000 to 10000 | – | – |
| Cc1cc(COc2c(F)cc(CC(C)C(=O)O)cc2F)n(-c2cccc(C(C)C)c2)n1 (centres unmarked) [Example 85, 3-(3,5-difluoro-4-((1-(3-isopropylphenyl)-3-methyl-1H-pyrazol-5-yl)methoxy)phenyl)-2-methylpropanoic acid] | 95 | – | ≤ 1000 | – |
| Cc1cc(COc2ccc(CC(C)C(=O)O)cc2C(F)(F)F)n(-c2ccc(Cl)cc2)n1 (centres unmarked) [Example 78, 3-(4-((1-(4-chlorophenyl)-3-methyl-1H-pyrazol-5-yl)methoxy)-3-(trifluoromethyl)phenyl)-2-methylpropanoic acid] | 92 | – | ≤ 1000 | – |
| Cc1onc(-c2ccccc2)c1C(=O)COc1c(F)cc(CCC(=O)O)cc1F [Example 26, 3-(3,5-difluoro-4-(2-(5-methyl-3-phenylisoxazol-4-yl)-2-oxoethoxy)phenyl)propanoic acid] | 100 | – | ≤ 1000 | – |
| O=C(O)CCc1cc(F)c(OCc2snnc2-c2ccc(F)cc2)c(F)c1 [Example 31, 3-(3,5-difluoro-4-((4-(4-fluorophenyl)-1,2,3-thiadiazol-5-yl)methoxy)phenyl)propanoic acid] | 85 | – | ≤ 1000 | – |
| Cc1onc(-c2ccc(Cl)cc2)c1COc1c(F)cc(CCC(=O)O)cc1F [Example 24, 3-(4-((3-(4-chlorophenyl)-5-methylisoxazol-4-yl)methoxy)-3,5-difluorophenyl)propanoic acid] | 92 | – | ≤ 1000 | – |
| Cc1cc(COc2ccc(C(C)(C)CC(=O)O)cc2)n(-c2ccc(Cl)cc2)n1 [Example 125, 3-(4-((1-(4-chlorophenyl)-3-methyl-1H-pyrazol-5-yl)methoxy)phenyl)-3-methylbutanoic acid] | 47 | 1000 to 10000 | – | – |
| Cc1onc(-c2ccc(F)cc2)c1COc1c(F)cc(C2CC2C(=O)O)cc1F (centres unmarked) [Example 17, 2-(3,5-difluoro-4-((3-(4-fluorophenyl)-5-methylisoxazol-4-yl)methoxy)phenyl)cyclopropanecarboxylic acid] | 78 | 1000 to 10000 | – | – |
| Cc1onc(-c2c(Cl)cccc2Cl)c1COc1c(F)cc(CCC(=O)O)cc1F [Example 22, 3-(4-((3-(2,6-dichlorophenyl)-5-methylisoxazol-4-yl)methoxy)-3,5-difluorophenyl)propanoic acid] | 75 | 1000 to 10000 | – | – |
| CCCc1ccc(-n2nc(C)cc2COc2c(F)cc(CC(C)C(=O)O)cc2F)cc1 (centres unmarked) [Example 105, 3-(3,5-Difluoro-4-((3-methyl-1-(4-propylphenyl)-1H-pyrazol-5-yl)methoxy)phenyl)-2-methylpropanoic acid] | 99 | – | ≤ 1000 | – |
| Cc1cc(COc2c(F)cc(CC(C)C(=O)O)cc2F)n(-c2ncc(Cl)cn2)n1 (centres unmarked) [Example 110, 3-(4-((1-(5-Chloropyrimidin-2-yl)-3-methyl-1H-pyrazol-5-yl)methoxy)-3,5-difluorophenyl)-2-methylpropanoic acid] | 19 | – | – | > 10000 |
| O=C(O)C(F)(F)Cc1cc(F)c(OCc2snnc2-c2ccc(Cl)cc2)c(F)c1 [Example 52, 3-(4-((4-(4-chlorophenyl)-1,2,3-thiadiazol-5-yl)methoxy)-3,5-difluorophenyl)-2,2-difluoropropanoic acid] | 96 | – | ≤ 1000 | – |
| O=C(O)CCc1cc(F)c(OCc2cc(C(F)(F)F)nn2-c2ccccc2)c(F)c1 [Example 65, 3-(3,5-difluoro-4-((1-phenyl-3-(trifluoromethyl)-1H-pyrazol-5-yl)methoxy)phenyl)propanoic acid] | 86 | – | ≤ 1000 | – |
| COc1ccc(-n2nc(C)cc2COc2c(F)cc(CCC(=O)O)cc2F)cc1 [Example 49, 3-(3,5-difluoro-4-((1-(4-methoxyphenyl)-3-methyl-1H-pyrazol-5-yl)methoxy)phenyl)propanoic acid] | 71 | – | ≤ 1000 | – |
| O=C(O)CCc1cc(F)c(OCc2cnnn2-c2ccccc2)c(F)c1 [Example 5, 3-(3,5-difluoro-4-((1-phenyl-1H-1,2,3-triazol-5-yl)methoxy)phenyl)propanoic acid] | 64 | 1000 to 10000 | – | – |
| CCc1cc(OCc2cc(C)nn2-c2ccc(Cl)cc2)ccc1CCC(=O)O [Example 118, 3-(4-((1-(4-chlorophenyl)-3-methyl-1H-pyrazol-5-yl)methoxy)-2-ethylphenyl)propanoic acid] | 103 | – | ≤ 1000 | – |
| CCCCc1ccc(-n2nc(C)cc2COc2c(F)cc(CC(C)C(=O)O)cc2F)cc1 (centres unmarked) [Example 82, 3-(4-((1-(4-butylphenyl)-3-methyl-1H-pyrazol-5-yl)methoxy)-3,5-difluorophenyl)-2-methylpropanoic acid] | 68 | – | ≤ 1000 | – |
| Cc1onc(-c2ccccc2)c1COc1ccc2c(c1)CCC(CC(=O)O)C2 (centres unmarked) [Example 40, 2-(6-((5-methyl-3-phenylisoxazol-4-yl)methoxy)-1,2,3,4-tetrahydronaphthalen-2-yl)acetic acid] | 100 | – | ≤ 1000 | – |
| O=C(O)CCC(=O)c1ccc(OCc2snnc2-c2ccc(Cl)cc2)cc1 [Example 67, 4-(4-((4-(4-chlorophenyl)-1,2,3-thiadiazol-5-yl)methoxy)phenyl)-4-oxobutanoic acid] | 59 | 1000 to 10000 | – | – |
| O=C(O)CCc1cc(F)c(OCc2snnc2-c2ccc(F)c(F)c2)c(F)c1 [Example 73, 3-(4-((4-(3,4-difluorophenyl)-1,2,3-thiadiazol-5-yl)methoxy)-3,5-difluorophenyl)propanoic acid] | 72 | – | ≤ 1000 | – |
| Cc1cc(COc2ccc(CC(C)CC(=O)O)cc2)n(-c2ccc(Cl)cc2)n1 (centres unmarked) [Example 72, 4-(4-((1-(4-chlorophenyl)-3-methyl-1H-pyrazol-5-yl)methoxy)phenyl)-3-methylbutanoic acid] | 100 | – | ≤ 1000 | – |
| Cc1cc(COc2c(F)cc(CCCC(=O)O)cc2F)n(-c2ccc(Cl)cc2)n1 [Example 128, 4-(4-((1-(4-chlorophenyl)-3-methyl-1H-pyrazol-5-yl)methoxy)-3,5-difluorophenyl)butanoic acid] | 112 | – | ≤ 1000 | – |
| Cc1cc(COc2c(F)cc(COCC(=O)O)cc2F)n(-c2ccc(Cl)cc2)n1 [Example 35, 2-(4-((1-(4-chlorophenyl)-3-methyl-1H-pyrazol-5-yl)methoxy)-3,5-difluorobenzyloxy)acetic acid] | 86 | – | ≤ 1000 | – |
| Cc1cc(COc2ccc3c(c2)CCC(CC(=O)O)C3)n(-c2ccc(Cl)cc2)n1 (centres unmarked) [Example 39, 2-(6-((1-(4-chlorophenyl)-3-methyl-1H-pyrazol-5-yl)methoxy)-1,2,3,4-tetrahydronaphthalen-2-yl)acetic acid] | 100 | – | ≤ 1000 | – |
| Cc1cc(COc2c(F)cc(CC(C)C(=O)O)cc2F)n(-c2ccc(C(C)C)cc2)n1 (centres unmarked) [Example 76, 3-(3,5-difluoro-4-((1-(4-isopropylphenyl)-3-methyl-1H-pyrazol-5-yl)methoxy)phenyl)-2-methylpropanoic acid] | 85 | – | ≤ 1000 | – |
